Assay [1] deals with Nrf2-dependent ARE transcriptional activity. Description: ARE-luc luciferase reporter gene assay in HepG2 cells (qHTS). The format is cell-based. The arrangement: Emax: reference not given here.
Another assay has as its system mutated ARE. The format is cell-based.
The subject of assay [2] is antioxidant response element (ARE) signaling pathway. Description: ARE-bla β-lactamase reporter gene assay in HepG2 cells (qHTS). Type of assay: cell-based, human. (A reporter such as luciferase makes a cellular process visible.)
For assay [3], the system named is mitogen-activated protein kinase (MAPK) pathway. To be noted: cited from earlier work.

“Also recorded” adds a separate entry of the source.

A word on the EC50: it is the midpoint of the concentration-response curve. As for `Oc1cccc2cccnc12` [8-Hydroxyquinoline], the “activity in ARE-luc assay (words)” value in assay [1] is recorded as “active; also recorded: demonstrated activity”. Further, the EC50 in assay [1] (Homo sapiens, HepG2, 16 h, read-out: ARE-luc EC50) turned out to be 10.1 ± 3.9 µM; in assay [2] (Homo sapiens, HepG2, 16 h, read-out: ARE-bla EC50), 16.1 ± 5.1 µM. In addition, the Emax was 200% in assay [1] (Homo sapiens, HepG2, read-out: ARE-luc Efficacy) and 53% in assay [2] (Homo sapiens, HepG2, read-out: ARE-bla Efficacy). For the same molecule, the “ARE-bla mutant IC50” value in the assay with mutated ARE was “inactive”. Moreover, the “activity in ARE-bla assay (words)” value in assay [2] is “active; also recorded: demonstrated activity”. Also, in assay [3], the “induction of MAPK pathway” value is listed as “shown to induce”.

Values taken from paper PMC3440086, “Profiling Environmental Chemicals for Activity in the Antioxidant Response Element Signaling Pathway Using a High Throughput Screening Approach” (Environmental Health Perspectives, 2012).
